Reference: patent publication US12583818B2 (DAEGU-GYEONGBUK MEDICAL INNOVATION FOUNDATION, priority 2020, dated 2026)
Like-named read-outs stand apart in the source and are kept apart here.

Assays:
Pin1 = target: T1, Pin1 (Homo sapiens, UniProt Q13526); experiment: Evaluation of Pin1 enzyme inhibitory activity (Sensolyte Green Pin1 assay kit); assay type: biochemical
T1 construct: purchased Anaspec
Summary of the method: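 Pin1 activity was measured with a fluorogenic kit assay (Sensolyte Green) using substrate prepared at 1 μM and protein at 50 μg/ml, both pre-mix concentrations. Compound working solutions were 100, 10, 1 or 0.1 μM, and reactions ran 2 h at room temperature in the dark, read at 490/520 nm. Inhibition was graded A–D by concentration.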

[1] = tested on: MDA-MB 231 triple negative breast cancer cell line; experiment: MDA-MB 231 protein expression inhibition (Western blotting, cycline D1 vs Vinculin); assay type: cell-based; conditions: Homo sapiens, compound 10 μM, 72 hours, cycline D1 Western blot, read-out: MBA-MB-231 (amount of the protein compared to the DMSO-treated control group)
Experimental: In order to confirm the ability of the compound represented by formula 1 according to the present invention to inhibit the protein expression of MDA-MB 231 triple negative breast cancer cell line, the following experiment was performed, and the results are shown in Table 3 below.
MDA-MB-231 cells were cultured in a 5% CO2 incubator at 37° C. using RPMI medium supplemented with 10% FBS and 1% penicillin/streptomycin.
The cells were washed with PBS once a day, and then replaced with a new medium. The cells grown at the density of at least 90% 1 day before the experiment were detached using trypsin/EDTA, and then plated at the density of 100,000 per well in a 6-well plate.
On the next day of culture, the compound prepared in each example was treated at a concentration of 10 μM, and DMSO was treated at a concentration of 0.1% of the total as the control, followed by incubation for 72 hours. After 72 hours, the cells were washed twice with PBS, collected by scraping, and centrifuged at 13,000 rpm for 3 minutes to remove all the supernatant and only cells were taken.
RIPA buffer (containing 1× protease inhibitor and phosphatase inhibitor) was added to the prepared cells (80 μl/well), and the plate was shaken once every 5 minutes to disrupt the cells for a total of 15 minutes. The disrupted cells were centrifuged at 13,000 rpm for 15 minutes to collect only the supernatant protein. The obtained protein was quantified using a BCA protein quantification kit (Pierece, MA, USA), and a total of 10 μg of the protein was used for Western blotting.
The protein sample was isolated by 10% SDS-PAGE, and transferred to a PVDF membrane. Anti-human cycline D1 antibody (Cell signal) and anti-Vinculin antibody were bound to the protein sample, and the expression of the protein was measured by using an ECL reagent and LAS4000 equipment. The measurement results were quantified and generalized using ImageJ. The results are shown in Table 3 below by dividing the grades A to D according to the amount of the protein compared to the DMSO-treated control group.

[2] = tested on: MCF7 cells (breast cancer cells); experiment: Cell viability of MCF7 cells (Cell-titer Glo); assay type: cell-based; conditions: Homo sapiens
Experimental: (§1) In order to confirm the inhibitory effect of the compound represented by formula 1 according to the present invention on the growth of MCF7, MCF7-SP, A2780 or A2780-SP cells, the following experiment was performed, and the results are shown in Tables 4 and 5 below.
MCF7 cells (breast cancer cells) were plated in a 96-well plate at the density of 3000 viable cells per well, and cultured in DMEM/High glucose medium supplemented with 10% FBS and 1% penicillin/streptomycin.
On the next day of culture, the cells were treated with the compound of Example 71, 76, 80, 84, 92, 99, 100 or 119, followed by culture for 3 days. Cell viability was evaluated by Cell-titer Glo (Promega, WC, USA), and luciferase activity was detected using a Tecan plate reader (Biocompare, USA).

[3] = tested on: MCF7-SP cells (breast cancer stem cells); experiment: Sphere cell viability of MCF7-SP cells (Cell-titer Glo); assay type: cell-based
Experimental: as §1
On the other hand, MCF7-SP cells (breast cancer stem cells) were plated in an Ultra-Low Attachment round bottom 96-well plate (corning) at the density of 1,500 viable cells per well, and cultured in cancer stem cell medium. The cancer stem cell medium is composed of the neurobasal medium supplemented with 20 ng/ml of bFGF, 10 ng/ml of EGF, 2.5 […], HEPES, Glutamax and B27.
On the next day of culture, the cells were treated with the compound of Example 71, 76, 80, 84, 92, 99, 100 or 119, followed by culture for 8 days. The medium containing the compound was added thereto once again on the 4th day. Sphere cell viability was evaluated by Cell-titer Glo (Promega, WC, USA), and luciferase activity was detected using a Tecan plate reader (Biocompare, USA).

[4] = tested on: A2780 cells (ovarian cancer cells); experiment: Cell viability of A2780 cells (Cell-titer Glo); assay type: cell-based; conditions: Homo sapiens
Summary of the method: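 A2780 ovarian cancer cells seeded at 3000 viable cells/well in RPMI-1640 with 10% FBS, dosed the next day and grown 3 days. Viability measured by Cell-titer Glo luminescence.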

[5] = tested on: A2780-SP cells (ovarian cancer stem cells); experiment: Sphere cell viability of A2780-SP cells (Cell-titer Glo); assay type: cell-based
Summary of the method: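 A2780-SP ovarian cancer stem cells grown as spheres in ultra-low-attachment wells (1,500 cells/well) in neurobasal stem-cell medium with bFGF, EGF, B27. Compound added the day after plating, re-dosed on day 4, 8-day culture total; viability by CellTiter-Glo luminescence.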

[6] = Table 2, read-out: concentration at which Pin1 inhibitory activity was exhibited
[7] = concentration at which the Pin1 enzyme activity is inhibited, 2 hours at room temperature, fluorescence 490 nm/520 nm, read-out: Pin 1 inhibition
[8] = 72 h, cell viability, culture for 3 days, read-out: MCF7
[9] = MCF7, text summary of Table 4, read-out: MCF7 cell concentration
[10] = 192 h, sphere cell viability, culture for 8 days, read-out: MCF7-SP
[11] = 72 h, cell viability, culture for 3 days, read-out: A2780
[12] = A2780, Table 5, read-out: A2780 cell concentration
[13] = 192 h, sphere cell viability, culture for 8 days, read-out: A2780-SP
[14] = Table 5, read-out: the concentration (second list of b710, cell line not named; matches A2780-SP column)

T1 sequence (Q13526 whole entry): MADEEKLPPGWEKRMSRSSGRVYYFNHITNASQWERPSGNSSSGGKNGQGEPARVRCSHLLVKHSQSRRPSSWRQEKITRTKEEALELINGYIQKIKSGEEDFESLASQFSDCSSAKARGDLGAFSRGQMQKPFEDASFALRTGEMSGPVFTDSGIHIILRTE

| SMILES | IC50 (Pin1; [6]) [nM] | IC50 (Pin1; [7]) [nM] | activity at 10 µM [1] [%] | IC50 [2, 8] [µM] | IC50 [2, 9] [µM] | IC50 [3, 10] [µM] | IC50 ([3]; text summary of Table 4, read-out: MCF7-SP cell concentration) [µM] | IC50 [4, 11] [µM] | IC50 [4, 12] [µM] | IC50 [5, 13] [nM] | IC50 [5, 14] [nM] |
| --- | --- | --- | --- | --- | --- | --- | --- | --- | --- | --- | --- |
| O=S(=O)(NCCCc1c[nH]c2ccc(Cl)cc12)c1ccc(OCCCN2CCNCC2)cc1 [Example 70, N-(3-(5-chloro-1H-indol-3-yl)propyl)-4-(3-(piperazin-1-yl)propoxy)benzenesulfonamide] | < 1000 | < 1000 | 0 to 35 | 1 to 10 | < 10 | 1 to 10 | < 10 | 1 to 10 | < 10 | < 1000 | < 1000 |
| O=S(=O)(NCCCc1c[nH]c2ccc(Cl)cc12)c1ccc(OCCCN2CCC(O)CC2)cc1 [Example 75, N-(3-(5-chloro-1H-indol-3-yl)propyl)-4-(3-(4-hydroxypiperidin-1-yl)propoxy)benzenesulfonamide] | < 1000 | < 1000 | 0 to 35 | 1 to 10 | < 10 | > 10 |  | 1 to 10 | < 10 | 1000 to 10000 |  |
| O=S(=O)(NCCCc1c[nH]c2ccc(Cl)cc12)c1ccc(OCCCN2CCNCC2)nc1 [Example 79, N-(3-(5-chloro-1H-indole-3-yl)propyl)-6-(3-(piperazine-1-yl)propoxy)pyridine-3-sulfonamide] | < 1000 | < 1000 | 0 to 35 | > 10 |  | > 10 |  | > 10 |  | < 1000 | < 1000 |
| O=S(=O)(NCCCc1c[nH]c2ccc(Cl)cc12)c1ccc(CCCCN2CCCCC2)cc1 [Example 90, N-(3-(5-chloro-1H-indole-3-yl)propyl)-4-(4-(piperidine-1-yl)butyl)benzenesulfonamide] | < 1000 | < 1000 | 35 to 50 |  |  |  |  | > 10 |  | < 1000 | < 1000 |
| CN1CCC(CCCOc2ccc(S(=O)(=O)NCCCc3c[nH]c4ccc(Cl)cc34)cc2)CC1 [Example 92, N-(3-(5-chloro-1H-indole-3-yl)propyl)-4-(3-(1-methylpiperidine-4-yl)propoxy)benzenesulfonamide] | < 1000 | < 1000 | 0 to 35 |  |  |  |  | > 10 |  | < 1000 | < 1000 |
| O=S(=O)(NCCCc1c[nH]c2ccc(Cl)cc12)c1ccc(OCCCC2CCNCC2)cc1 [Example 93, N-(3-(5-chloro-1H-indole-3-yl)propyl)-4-(3-(piperidine-4-yl)propoxy)benzenesulfonamide] | < 1000 | < 1000 | 0 to 35 |  |  |  |  | 1 to 10 | < 10 | < 1000 | < 1000 |
| CN1CCN(CCCOc2ccc(S(=O)(=O)NCCCc3c[nH]c4ccc(Cl)cc34)cc2F)CC1 [Example 103, N-(3-(5-chloro-1H-indole-3-yl)propyl)-3-fluoro-4-(3-(4-methylpiperazine-1-yl)propoxy)benzenesulfonamide] | < 1000 | < 1000 | 35 to 50 |  |  |  |  | > 10 |  | < 1000 | < 1000 |
| O=S(=O)(NCCCc1c[nH]c2ccc(Cl)cc12)c1ccc(OCCCN2CCNCC2)c(F)c1 [Example 104, N-(3-(5-chloro-1H-indol-3-yl)propyl)-3-fluoro-4-(3-(piperazin-1-yl)propoxy)benzenesulfonamide] | < 1000 | < 1000 | 70 to 100 |  |  |  |  | > 10 |  | < 1000 | < 1000 |
| O=S(=O)(NCCCc1c[nH]c2ccc(Cl)cc12)c1ccc(OCCCN2CCC(O)CC2)c(F)c1 [Example 105, N-(3-(5-chloro-1H-indol-3-yl)propyl)-3-fluoro-4-(3-(4-hydroxypiperidin-1-yl)propoxy)benzenesulfonamide] | < 1000 | < 1000 | 70 to 100 |  |  |  |  | > 10 |  | < 1000 | < 1000 |
| O=S(=O)(NCCCc1c[nH]c2ccc(Cl)cc12)c1ccc(OCCCN2CCCNCC2)c(F)c1 [Example 106, 4-(3-(1,4-diazepan-1-yl)propoxy)-N-(3-(5-chloro-1H-indol-3-yl)propyl)-3-fluorobenzenesulfonamide] | < 1000 | < 1000 | 50 to 70 |  |  |  |  | 1 to 10 | < 10 | < 1000 | < 1000 |
| O=S(=O)(NCCCc1c[nH]c2ccc(Cl)cc12)c1ccc(Oc2cccc(N3CCNCC3)c2)cc1 [Example 121, N-(3-(5-chloro-1H-indol-3-yl)propyl)-4-(3-(piperazin-1-yl)phenoxy)benzenesulfonamide] | < 1000 | < 1000 | 0 to 35 |  |  |  |  | 1 to 10 | < 10 | < 1000 | < 1000 |
| CN1CCN(c2cccc(Nc3ccc(S(=O)(=O)NCCCc4c[nH]c5ccc(Cl)cc45)cc3)c2)CC1 [Example 123, N-(3-(5-chloro-1H-indole-3-yl)propyl)-4-((3-(4-methylpiperazine-1-yl)phenyl)amino)benzenesulfonamide] | < 1000 | < 1000 | 70 to 100 |  |  |  |  | 1 to 10 | < 10 | 1000 to 10000 |  |
